Data set [1] deals with Staphylococcus aureus. Kind of data set: Antibacterial activity against Methicillin-resistant Staphylococcus aureus BNCC 337371 assessed as inhibition of bacterial growth incubated for 24 hrs by microbroth two-fold dilution method. In kind it is functional. Background: In broth dilution the organism is exposed to a series of concentrations in liquid medium.
The test system of data set [2] is Streptococcus agalactiae. The experiment in a line: Antibacterial activity against Streptococcus agalactiae assessed as bacterial growth by measuring optical density at 0.5 times MIC incubated for 12 hrs by real time growth curve analysis. In kind it is functional.
Data set [3] concerns Staphylococcus aureus. The experiment in a line: Antibacterial activity against Staphylococcus aureus assessed as inhibition of bacterial growth incubated for 24 hrs by microbroth two-fold dilution method. Type of data set: functional.
The test system of data set [4] is Escherichia coli. Kind of data set: Antibacterial activity against Escherichia coli assessed as bacterial growth by measuring optical density at 0.5 times MIC incubated for 12 hrs by real time growth curve analysis. Type of data set: functional.
Data set [5] relates to Streptococcus agalactiae. The experiment in a line: Antibacterial activity against Streptococcus agalactiae assessed as bacterial growth by measuring optical density at 1 to 2 times MIC incubated for 12 hrs by real time growth curve analysis. Type of data set: functional.
Data set [6] relates to Streptococcus agalactiae. Kind of data set: Antibacterial activity against Streptococcus agalactiae assessed as inhibition of bacterial growth incubated for 24 hrs by microbroth two-fold dilution method. In kind it is functional.
Data set [7] deals with Escherichia coli. Kind of data set: Antibacterial activity against Escherichia coli assessed as bacterial growth by measuring optical density at 1 to 2 times MIC incubated for 12 hrs by real time growth curve analysis. Type of data set: functional.
In data set [8] the test system is Escherichia coli. Kind of data set: Antibacterial activity against Escherichia coli assessed as inhibition of bacterial growth incubated for 24 hrs by microbroth two-fold dilution method. Type of data set: functional.
Data set [9] concerns Staphylococcus aureus. The experiment in a line: Antibacterial activity against Staphylococcus aureus assessed as bacterial growth by measuring optical density incubated for 12 hrs by real time growth curve analysis. In kind it is functional.
Data set [10] concerns Staphylococcus aureus. Kind of data set: Antibacterial activity against Staphylococcus aureus assessed as diameter of the inhibition circle at 1 mg/ml incubated for 48 hrs. Type of data set: functional.
For a further data set, the system named is Shigella dysenteriae. The experiment in a line: Antibacterial activity against Shigella dysenteriae assessed as inhibition of bacterial growth. In kind it is functional.
For data set [11], the system named is Mycoplasmoides pneumoniae. Kind of data set: Antibacterial activity against Mycoplasma pneumoniae assessed as inhibition of bacterial growth. In kind it is functional.
The subject of data set [12] is Staphylococcus aureus. The experiment in a line: Bactericidal activity against Staphylococcus aureus assessed as bacterial killing at 8 times MIC incubated up to 24 hrs by time kill assay. Type of data set: functional, organism-based.
In data set [13] the test system is Staphylococcus aureus. Kind of data set: Bactericidal activity against Staphylococcus aureus assessed as bacterial killing at 32 times MIC incubated for 9 hrs by time kill assay. Type of data set: functional.
The test system of another data set is L02. The experiment in a line: Cytotoxicity against human L02 cells assessed as cell viability incubated for 16 hrs by MTT assay. In kind it is toxicity, cell-based. The settings on record: l02, 16 h. On the technique in general: Formazan colour is commonly taken as a measure of viable cells.
For data set [14], the system named is Staphylococcus aureus. Kind of data set: Bactericidal activity against Staphylococcus aureus assessed as bacterial killing at 16 times MIC incubated for 12 hrs by time kill assay. In kind it is functional.
The subject of data set [15] is Staphylococcus aureus. The experiment in a line: Bactericidal activity against Staphylococcus aureus assessed as bacterial killing at 32 times MIC incubated for 12 hrs by time kill assay. In kind it is functional.
The test system of data set [16] is Staphylococcus aureus. The experiment in a line: Bactericidal activity against Staphylococcus aureus assessed as bacterial killing at 1 to 4 times MIC incubated up to 24 hrs by time kill assay. Type of data set: functional.
A further data set has as its system HEK-293T. Kind of data set: Cytotoxicity against human HEK293T cells assessed as cell viability incubated for 16 hrs by MTT assay. Type of data set: toxicity, cell-based.

Results on eight compounds are retold here after ChEMBL document CHEMBL5120839, “Design, synthesis and antibacterial activity of novel pleuromutilin derivatives with thieno[2,3-d]pyrimidine substitution” (Eur J Med Chem, 2022).

Values after ≈ are worked out from the molar mass of the structure shown. Active and inactive are the calls of the source. The calls are words filed in the database; no cut-off is given here.

The MIC is the lowest concentration that inhibits growth of the organism. `C=C[C@]1(C)C[C@@H](OC(=O)CSc2nc(N3CCNCC3)c3ccsc3n2)[C@]2(C)[C@H](C)CC[C@]3(CCC(=O)[C@H]32)[C@@H](C)[C@@H]1O`: the MIC with Staphylococcus aureus [1] was determined as 0.122 mg/L (≈ 0.199 µM); in the data set with Staphylococcus aureus [3] it was 0.0076 mg/L (≈ 0.0124 µM); in the data set with Streptococcus agalactiae [6] it was 0.0153 mg/L (≈ 0.025 µM); in the data set on Escherichia coli [8], 0.976 mg/L (≈ 1.59 µM). For the same compound, the OD in the data set on Streptococcus agalactiae [2] is recorded as under 0.3; in the data set on Escherichia coli [4] it was under 0.3; with Streptococcus agalactiae [5], 0.1; in the data set with Escherichia coli [7], 0.1; in the data set on Staphylococcus aureus [9], under 0.3. Further, the inhibition zone diameter in the data set with Staphylococcus aureus [10] worked out at 26.8 mm.
Regarding `C=C[C@]1(C)C[C@@H](OC(=O)CSC(C)(C)CNC(=O)[C@H](N)C(C)C)[C@]2(C)[C@H](C)CC[C@]3(CCC(=O)[C@H]32)[C@@H](C)[C@@H]1O` [VALNEMULIN], the MIC (with Shigella dysenteriae; in data set [11]) was 0.03 mg/L (≈ 0.0531 µM) each time.
As to `C=C[C@]1(C)C[C@@H](OC(=O)CSCCN(CC)CC)[C@]2(C)[C@H](C)CC[C@]3(CCC(=O)[C@H]32)[C@@H](C)[C@@H]1O` [TIAMULIN], the MIC in the data set on Staphylococcus aureus [1] was found to be 0.488 mg/L (≈ 0.989 µM); in the data set with Staphylococcus aureus [3] it was 0.488 mg/L (≈ 0.989 µM); with Streptococcus agalactiae [6], 0.122 mg/L (≈ 0.247 µM); in the data set with Escherichia coli [8], 15.6 mg/L (≈ 31.6 µM). The outcome in the data set with Staphylococcus aureus [12] was Active. For the same compound, the inhibition zone diameter with Staphylococcus aureus [10] worked out at 25.2 mm.
Turning to `C=C[C@]1(C)C[C@@H](OC(=O)CSc2nc(N3CCN(CC)CC3)c3ccsc3n2)[C@]2(C)[C@H](C)CC[C@]3(CCC(=O)[C@H]32)[C@@H](C)[C@@H]1O`, the MIC worked out at 0.0076 mg/L (≈ 0.0119 µM) with Staphylococcus aureus [1], 0.0019 mg/L (≈ 0.00296 µM) in the data set on Staphylococcus aureus [3], 0.122 mg/L (≈ 0.191 µM) in the data set with Streptococcus agalactiae [6] and 0.122 mg/L (≈ 0.191 µM) with Escherichia coli [8]. Further, the OD is under 0.3 in the data set with Streptococcus agalactiae [2]; under 0.3 in the data set with Escherichia coli [4]; 0.1 in the data set with Streptococcus agalactiae [5]; 0.1 in the data set on Escherichia coli [7]; under 0.2 with Staphylococcus aureus [9]. In addition, the Activity with Staphylococcus aureus [13] is recorded as 99.9%; with L02, “Non-Toxic”; in the data set with Staphylococcus aureus [14], 99.9%; in the data set with Staphylococcus aureus [15], 99.9%; in the data set on Staphylococcus aureus [16] it was 99.9%; in the data set with HEK-293T, “Non-Toxic”. Also, the inhibition zone diameter in the data set on Staphylococcus aureus [10] is 33.5 mm.
Take `C=C[C@]1(C)C[C@@H](OC(=O)CSc2nc(NCCO)c3ccsc3n2)[C@]2(C)[C@H](C)CC[C@]3(CCC(=O)[C@H]32)[C@@H](C)[C@@H]1O`: the MIC with Staphylococcus aureus [1] was determined as 0.0019 mg/L (≈ 0.00323 µM); in the data set on Staphylococcus aureus [3], 0.0019 mg/L (≈ 0.00323 µM); in the data set on Streptococcus agalactiae [6], 0.0019 mg/L (≈ 0.00323 µM); with Escherichia coli [8], 0.0076 mg/L (≈ 0.0129 µM). Also, the OD in the data set on Streptococcus agalactiae [2] is under 0.3; with Escherichia coli [4], under 0.3; in the data set with Streptococcus agalactiae [5] it was 0.1; with Escherichia coli [7] it was 0.1; in the data set with Staphylococcus aureus [9], under 0.2. The Activity result was “Non-Toxic” in the data set on L02, 99.9% with Staphylococcus aureus [16] and “Non-Toxic” with HEK-293T. Moreover, the inhibition zone diameter in the data set with Staphylococcus aureus [10] worked out at 33 mm.
As for `C=C[C@]1(C)C[C@@H](OC(=O)CSc2nc(NCCO)c3ccccc3n2)[C@]2(C)[C@H](C)CC[C@]3(CCC(=O)[C@H]32)[C@@H](C)[C@@H]1O`, the MIC was determined as 0.0305 mg/L (≈ 0.0524 µM) in the data set with Staphylococcus aureus [1], 0.0153 mg/L (≈ 0.0263 µM) in the data set on Staphylococcus aureus [3], 0.0153 mg/L (≈ 0.0263 µM) with Streptococcus agalactiae [6] and 0.03 mg/L (≈ 0.0516 µM) with Escherichia coli [8]. Further, the OD in the data set on Streptococcus agalactiae [2] is listed as under 0.3; with Escherichia coli [4], under 0.3; with Streptococcus agalactiae [5] it was 0.1; with Escherichia coli [7], 0.1; in the data set with Staphylococcus aureus [9], under 0.3. Also, the inhibition zone diameter with Staphylococcus aureus [10] is 30.5 mm.
`C=C[C@]1(C)C[C@@H](OC(=O)CS[C@@H]2C[C@H]3CC[C@@H](C2)N3C)[C@]2(C)[C@H](C)CC[C@]3(CCC(=O)[C@H]32)[C@@H](C)[C@@H]1O` [RETAPAMULIN]: the MIC with Staphylococcus aureus [1] is 0.0621 mg/L (≈ 0.12 µM); with Staphylococcus aureus [3], 0.122 mg/L (≈ 0.236 µM); in the data set with Streptococcus agalactiae [6], 0.0305 mg/L (≈ 0.0589 µM); with Escherichia coli [8] it was 1.95 mg/L (≈ 3.77 µM). Further, in the data set on Staphylococcus aureus [10], the inhibition zone diameter came to 30.4 mm.
For the compound `C=C[C@]1(C)C[C@@H](OC(=O)CSc2nc(N(C)CCN(C)C)c3ccsc3n2)[C@]2(C)[C@H](C)CC[C@]3(CCC(=O)[C@H]32)[C@@H](C)[C@@H]1O`, the minimal inhibitory concentration (MIC) with Staphylococcus aureus [1] is 0.244 mg/L (≈ 0.388 µM); with Staphylococcus aureus [3] it was 0.0019 mg/L (≈ 0.00302 µM); in the data set with Streptococcus agalactiae [6], 0.244 mg/L (≈ 0.388 µM); in the data set with Escherichia coli [8], 0.244 mg/L (≈ 0.388 µM). In addition, the OD in the data set with Streptococcus agalactiae [2] is under 0.3; in the data set with Escherichia coli [4] it was under 0.3; in the data set with Streptococcus agalactiae [5], 0.1; in the data set with Escherichia coli [7] it was 0.1. For the same compound, the inhibition zone diameter in the data set on Staphylococcus aureus [10] came to 29.4 mm.
